What was measured:
[1] = Drug uptake in eyes of C57BL/6J mouse implanted with mouse B16F0 cells at 3.7 MBq, iv measured at 24 hrs post injection by gamma counting analysis; format: ADME, organism-based, Eye; conditions: in vivo
[2] = Drug uptake in eyes of C57BL/6J mouse implanted with mouse B16F0 cells at 3.7 MBq, iv measured at 1 hr post injection by gamma counting analysis; format: ADME, organism-based, Eye; conditions: in vivo
[3] = Drug uptake in thyroid/submaxillary glands of C57BL/6J mouse implanted with mouse B16F0 cells at 3.7 MBq, iv measured at 1 hr post injection by gamma counting analysis; format: ADME, organism-based, Submaxillary gland/Thyroid; conditions: in vivo
[4] = Drug uptake in tumor of C57BL/6J mouse implanted with mouse B16F0 cells at 3.7 MBq, iv measured at 24 hrs post injection by gamma counting analysis; format: ADME, organism-based, Neoplasm; conditions: in vivo
[5] = Drug uptake in intestine of C57BL/6J mouse implanted with mouse B16F0 cells at 3.7 MBq, iv measured at 6 hrs post injection by gamma counting analysis; format: ADME, organism-based; conditions: in vivo
[6] = Drug uptake in muscles of C57BL/6J mouse implanted with mouse B16F0 cells at 3.7 MBq, iv measured at 72 hrs post injection by gamma counting analysis; format: ADME, organism-based, Muscle tissue; conditions: in vivo
[7] = Drug uptake in thyroid/submaxillary glands of C57BL/6J mouse implanted with mouse B16F0 cells at 3.7 MBq, iv measured at 3 hrs post injection by gamma counting analysis; format: ADME, organism-based, Submaxillary gland/Thyroid; conditions: in vivo
[8] = Drug uptake in tumor of C57BL/6J mouse implanted with mouse B16F0 cells at 3.7 MBq, iv measured at 1 hr post injection by gamma counting analysis; format: ADME, organism-based, Neoplasm; conditions: in vivo
[9] = Drug uptake in liver of C57BL/6J mouse implanted with mouse B16F0 cells at 3.7 MBq, iv measured at 24 hrs post injection by gamma counting analysis; format: ADME, organism-based; conditions: in vivo
[10] = Drug uptake in blood of C57BL/6J mouse implanted with mouse B16F0 cells at 3.7 MBq, iv measured at 72 hrs post injection by gamma counting analysis; format: ADME, organism-based; conditions: in vivo
[11] = Drug uptake in stomach of C57BL/6J mouse implanted with mouse B16F0 cells at 3.7 MBq, iv measured at 3 hrs post injection by gamma counting analysis; format: ADME, organism-based; conditions: in vivo
[12] = Drug uptake in kidney of C57BL/6J mouse implanted with mouse B16F0 cells at 3.7 MBq, iv measured at 72 hrs post injection by gamma counting analysis; format: ADME, organism-based; conditions: in vivo
[13] = Ratio of drug uptake in tumor to muscle in C57BL/6J mouse implanted with mouse B16F0 cells at 3.7 MBq, iv measured at 1 hr post injection; format: ADME, organism-based; conditions: in vivo
[14] = Drug uptake in intestine of C57BL/6J mouse implanted with mouse B16F0 cells at 3.7 MBq, iv measured at 24 hrs post injection by gamma counting analysis; format: ADME, organism-based; conditions: in vivo
[15] = Ratio of drug uptake in tumor to blood in C57BL/6J mouse implanted with mouse B16F0 cells at 3.7 MBq, iv measured at 3 hrs post injection; format: ADME, organism-based
Mus musculus [16] = assay: Toxicity in C57BL/6J mouse assessed as lethargy at 3.7 MBq, iv measured up to 72 hrs post injection; format: organism-based; conditions: in vivo
[17] = Ratio of drug uptake in tumor to blood in C57BL/6J mouse implanted with mouse B16F0 cells at 3.7 MBq, iv measured at 72 hrs post injection; format: ADME, organism-based
[18] = Drug uptake in thyroid/submaxillary glands of C57BL/6J mouse implanted with mouse B16F0 cells at 3.7 MBq, iv measured at 24 hrs post injection by gamma counting analysis; format: ADME, organism-based, Submaxillary gland/Thyroid; conditions: in vivo
Mus musculus [19] = assay: Toxicity in C57BL/6J mouse assessed as rough coat at 3.7 MBq, iv measured up to 72 hrs post injection; format: organism-based; conditions: in vivo
[20] = Drug uptake in intestine of C57BL/6J mouse implanted with mouse B16F0 cells at 3.7 MBq, iv measured at 3 hrs post injection by gamma counting analysis; format: ADME, organism-based; conditions: in vivo
[21] = Drug uptake in muscles of C57BL/6J mouse implanted with mouse B16F0 cells at 3.7 MBq, iv measured at 24 hrs post injection by gamma counting analysis; format: ADME, organism-based, Muscle tissue; conditions: in vivo
[22] = Ratio of drug uptake in tumor to blood in C57BL/6J mouse implanted with mouse B16F0 cells at 3.7 MBq, iv measured at 1 hr post injection; format: ADME, organism-based
[23] = Drug uptake in bladder of C57BL/6J mouse implanted with mouse B16F0 cells at 3.7 MBq, iv measured at 1 hr post injection by scintigraphic imaging analysis; format: ADME, organism-based, Urinary bladder; conditions: in vivo
[24] = Drug uptake in intestine of C57BL/6J mouse implanted with mouse B16F0 cells at 3.7 MBq, iv measured at 72 hrs post injection by gamma counting analysis; format: ADME, organism-based; conditions: in vivo
[25] = Drug uptake in kidney of C57BL/6J mouse implanted with mouse B16F0 cells at 3.7 MBq, iv measured at 3 hrs post injection by gamma counting analysis; format: ADME, organism-based; conditions: in vivo
[26] = Drug uptake in tumor of C57BL/6J mouse implanted with mouse B16F0 cells at 3.7 MBq, iv measured at 72 hrs post injection by gamma counting analysis; format: ADME, organism-based, Neoplasm; conditions: in vivo
[27] = Ratio of drug uptake in tumor to blood in C57BL/6J mouse implanted with mouse B16F0 cells at 3.7 MBq, iv measured at 24 hrs post injection; format: ADME, organism-based
Mus musculus [28] = assay: Toxicity in C57BL/6J mouse assessed as closed eyes at 3.7 MBq, iv measured up to 72 hrs post injection; format: organism-based; conditions: in vivo
[29] = Drug uptake in liver of C57BL/6J mouse implanted with mouse B16F0 cells at 3.7 MBq, iv measured at 72 hrs post injection by gamma counting analysis; format: ADME, organism-based; conditions: in vivo
[30] = Drug uptake in tumor of C57BL/6J mouse implanted with mouse B16F0 cells at 3.7 MBq, iv measured at 6 hrs post injection by gamma counting analysis; format: ADME, organism-based, Neoplasm; conditions: in vivo
[31] = Drug uptake in tumor of C57BL/6J mouse implanted with mouse B16F0 cells at 3.7 MBq, iv measured at 3 hrs post injection by gamma counting analysis; format: ADME, organism-based, Neoplasm; conditions: in vivo
[32] = Drug uptake in liver of C57BL/6J mouse implanted with mouse B16F0 cells at 3.7 MBq, iv measured at 1 hr post injection by gamma counting analysis; format: ADME, organism-based; conditions: in vivo
[33] = Ratio of drug uptake in tumor to muscle in C57BL/6J mouse implanted with mouse B16F0 cells at 3.7 MBq, iv measured at 6 hrs post injection; format: ADME, organism-based; conditions: in vivo
[34] = Drug uptake in muscles of C57BL/6J mouse implanted with mouse B16F0 cells at 3.7 MBq, iv measured at 6 hrs post injection by gamma counting analysis; format: ADME, organism-based, Muscle tissue; conditions: in vivo
[35] = Drug uptake in blood of C57BL/6J mouse implanted with mouse B16F0 cells at 3.7 MBq, iv measured at 3 hrs post injection by gamma counting analysis; format: ADME, organism-based; conditions: in vivo
[36] = Drug uptake in abdomen of C57BL/6J mouse implanted with mouse B16F0 cells at 3.7 MBq, iv measured at 1 hr post injection by scintigraphic imaging analysis; format: ADME, organism-based; conditions: in vivo
[37] = Drug uptake in stomach of C57BL/6J mouse implanted with mouse B16F0 cells at 3.7 MBq, iv measured at 72 hrs post injection by gamma counting analysis; format: ADME, organism-based; conditions: in vivo
[38] = Ratio of drug uptake in tumor to blood in C57BL/6J mouse implanted with mouse B16F0 cells at 3.7 MBq, iv measured at 6 hrs post injection; format: ADME, organism-based; conditions: tumour

Drug uptake [1] [% ID/g] | Drug uptake [2] [% ID/g] | Drug uptake [3] [% ID/g] | Drug uptake [4] [% ID/g] | Drug uptake [5] [% ID/g] | Drug uptake [6] [% ID/g] | Drug uptake [7] [% ID/g] | Drug uptake [8] [% ID/g] | Drug uptake [9] [% ID/g] | Drug uptake [10] [% ID/g] | Drug uptake [11] [% ID/g] | Drug uptake [12] [% ID/g] | Ratio [13] | Drug uptake [14] [% ID/g] | Kp at 3 h [15] | Kp at 72 h [17] | Drug uptake [18] [% ID/g] | Drug uptake [20] [% ID/g] | Structure (SMILES) | Activity (Mus musculus [16]) | Activity (Mus musculus [19]) | also measured
0.09 | 0.78 | 11.05 | 0.72 | 1.24 | 0.06 | 20.47 | 2.23 | 0.13 | 1.94 | 27.07 | 0.32 | 4.84 | 0.4 | 1.07 | 1.12 | 19.5 | 2.88 | CCN(CC)CCNC(=O)c1cnc2cc(NC(=O)COc3ccc(SSCCOC(=O)O[C@H]4C[C@H](n5cc([125I])c(=O)[nH]c5=O)O[C@@H]4CO)cc3)ccc2n1 | Non-Toxic | Non-Toxic | Drug uptake [21]: 0.04 % ID/g; Kp at 1 h [22]: 1.11; Drug uptake [23]: Active; Drug uptake [24]: 0.27 % ID/g; Drug uptake [25]: 1.89 % ID/g; Drug uptake [26]: 0.37 % ID/g; Kp at 24 h [27]: 5.63; Activity (Mus musculus [28]): Non-Toxic; Drug uptake [29]: 0.11 % ID/g; Drug uptake [30]: 1.94 % ID/g; Drug uptake [31]: 2.75 % ID/g; Drug uptake [32]: 1.12 % ID/g; Ratio [33]: 12.3; Drug uptake [34]: 0.19 % ID/g; Drug uptake [35]: 2.57 % ID/g; Drug uptake [36]: Active; Drug uptake [37]: 0.23 % ID/g; Ratio [38]: 2.08
0.04 | 1.02 | 13.63 | 0.46 | 0.77 | 0.03 | 14.55 | 2.79 | 0.08 | 0.02 | 12.33 | 0.08 | 2.96 | 0.34 | 1.14 | 14.4 | 22.45 | 1.27 | O=c1[nH]c(=O)n([C@H]2C[C@H](O)[C@@H](CO)O2)cc1[125I] | Non-Toxic | Non-Toxic | Drug uptake [21]: 0.02 % ID/g; Kp at 1 h [22]: 0.89; Drug uptake [23]: Active; Drug uptake [24]: 0.24 % ID/g; Drug uptake [25]: 1.08 % ID/g; Drug uptake [26]: 0.33 % ID/g; Kp at 24 h [27]: 7.24; Activity (Mus musculus [28]): Non-Toxic; Drug uptake [29]: 0.04 % ID/g; Drug uptake [30]: 1.19 % ID/g; Drug uptake [31]: 1.66 % ID/g; Drug uptake [32]: 1.3 % ID/g; Ratio [33]: 10.66; Drug uptake [34]: 0.11 % ID/g; Drug uptake [35]: 1.49 % ID/g; Drug uptake [36]: Active; Drug uptake [37]: 0.2 % ID/g; Ratio [38]: 2.58

— ChEMBL document CHEMBL3856199, “Melanoma-targeted delivery system (part 2): Synthesis, radioiodination and biological evaluation in B16F0 bearing mice” (Eur J Med Chem, 2016)
